In patent US7989634B2, “Melanocortin receptor agonists” (LG Life Sciences Ltd., priority 2003, dated 2011):
pEC50, pIC50: −log10 of the molar value.

How the values were obtained:
[1] = target: T1, human melanocortin receptor 4 (MC4R) (Homo sapiens, UniProt P32245); experiment: Membrane fraction binding assay (125I-NDP-MSH competition); conditions: binding affinity against MCR4
T1 construct: expressed in transfected cells
Procedure: The membrane fraction binding assay was used to identify competitive inhibitors of ^125I-NDP- -MSH binding to cloned human MCRs expressed in HEK cells.
Cell lines expressing human melanocortin receptor 4 (MC4R) were grown in Φ150 mm culture dishes in DMEM (GIBCO-BRL) supplemented with 10% FBS, 200 ug/ml Geneticin (GIBCO-BRL), and antibiotics (penicillin and streptomycin) (GIBCO-BRL) in an atmosphere of 6% CO2 at 37° C. When the cells were fully grown, the cells were washed once with 10 ml of Ca^++, Mg^++ free DPBS. The cells were incubated with 8 ml of Ca^++, Mg^++ free DPBS for 15-30 min at 37° C. until the cells were easily detached by triturating with pipette. The cells were harvested into 50 ml of conical tubes, and spun at 1500 rpm for 5 min. The supernatant was discarded, and the cells were resuspended in 8 ml of Ca^++, Mg^++ free DPBS, and spun at 1500 rpm for 5 min. The supernatant was discarded, and pellets were resuspended in 3 ml of membrane preparation buffer (50 mM Tris, pH 7.2˜7.4, 4 ug/ml Leupeptin; 10 uM Phosphoramidon; 40 ug/ml Bacitracin; 5 ug/ml Aprotinin; 10 mM Pefabloc). The pellets were homogenized with dounce homogenizer (Bellco with type “B” glass pestle) using 10-12 strokes. The homogenate was centrifuged (Beckman XL-100K Ultracentrifuge, Rotor 45 Ti, 50 ml centrifuge tube) at 40,000 rpm (100,000×g) for 30 min at 4° C. The pellets were resuspended in 20 ml of membrane preparation buffer, and protein was determined by BCA assay kit (PIERCE). Aliquots were placed in tubes and stored at −80° C.
Membrane fraction was diluted with membrane binding buffer to make final 600 ug/ml, and 50 ul of membrane fraction containing 30 ug of membrane protein was added onto each well of 96-well assay plate. 25 ul of test compounds or 20 uM unlabelled NDP- -MSH (to make the final concentration at 5 uM) diluted with membrane binding buffer was added onto each well of 96-well assay plate. […] The top was sealed, and the radioactivity was quantitated in a Packard Topcount Microplate Scintillation Counter. […]

[2] = target: T1, human melanocortin receptor 4 (MC4R); experiment: Luciferase functional assay; format: cell-based; conditions: agonistic efficacy against MCR4; functional assay not specified (luciferase or cAMP)
Procedure: Cell lines expressing human melanocortin receptor 4 (MC4R) were dissociated from tissue culture dishes by rinsing with Ca^++, Mg^++ free DPBS, treated with 1× Trypsin/EDTA solution for 1 min at 37° C., and resuspended with DMEM (GIBCO-BRL) supplemented with 10% FBS. The cells were counted and diluted with DMEM supplemented with 10% FBS and 200 ug/ml of Geneticin to 5×10^5 cells/ml. 90 ul of cell suspension was plated onto each well of 96-well black and clear bottom culture plates (Costar). After the incubation for 24 h in the atmosphere of 6% CO2 at 37° C., 10 ul of NDP- -MSH and test compounds diluted in DMSO were added to each well. The final DMSO concentration was 1%. After 4 h of incubation in the atmosphere of 6% CO2 at 37° C., 50 ul of Bright-Glo (Promega) was added to each well. Luciferase activity was measured by using L-Max luminometer (Molecular Device). The amount of luciferase activity induced by treatment with NDP- -MSH was defined as 100% to obtain the relative efficacy of test compounds. The EC0.5 MSH was defined as the concentration of test compounds that results in half maximal activity of NDP- -MSH. The EC50 was defined as the concentration of test compound that results in half maximal activity of its own.

T1 sequence (P32245 whole entry): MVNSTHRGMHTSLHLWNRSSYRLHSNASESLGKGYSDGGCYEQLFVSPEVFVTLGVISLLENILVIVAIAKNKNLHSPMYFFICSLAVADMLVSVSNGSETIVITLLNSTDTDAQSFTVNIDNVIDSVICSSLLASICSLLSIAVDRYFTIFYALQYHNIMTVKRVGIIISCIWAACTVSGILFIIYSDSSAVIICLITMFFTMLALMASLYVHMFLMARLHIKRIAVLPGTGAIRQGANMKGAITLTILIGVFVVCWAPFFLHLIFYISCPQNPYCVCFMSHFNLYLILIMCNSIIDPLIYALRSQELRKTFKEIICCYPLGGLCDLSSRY

Row | SMILES | pIC50 [1] | pEC50 [2]
1 | CC(C)C(=O)N(C1CCCCC1)[C@H]1CCN(NC(=O)[C@@H](Cc2ccc(Cl)cc2)NC[C@H]2CCCN2)C1 [Example 3, (2R)-2-{[(2R)-pyrrolidine-2-yl]methyl}amino-N-{(3S)-3-[cyclohexyl(isobutyryl)amino]pyrrolidine-1-yl}-3-(4-chlorophenyl)propionamide 2TFA] | 6.30 to 7.00 | 6.30 to 8.30
2 | CC(C)C(=O)N(C1CCCCC1)[C@H]1CCN(C(=O)[C@H](N)Cc2ccc(Cl)cc2)C1 [Example 1] | 6.30 to 7.00 | 6.30 to 8.30
3 | CC(C)C(=O)N(C1CCCCC1)[C@H]1CCN(C(=O)[C@@H](Cc2ccc(Cl)cc2)NC(=O)[C@H]2CCCN2)C1 [Example 2] | 6.30 to 7.00 | 6.30 to 8.30
